Laboratory results as given in US11319305B2, “Pyrimidine sulfamide derivative and preparation method and medical application thereof” (SHIJIAZHUANG SAGACITY NEW DRUG DEVELOPMENT CO., LTD., priority 2017, dated 2022).

Tests used:
human ETA receptor = target: T1, human ETA receptor (Homo sapiens, UniProt P25101); test: In vitro antagonistic effect against human ETA receptor, Ca2+ signal in SK-N-MC cells; format: cell-based; conditions: for IC50: SK-N-MC cells, response to 1 nM endothelin-1; for ETA/ETB selectivity: ratio of ETB IC50 to ETA IC50
T1 construct: endogenously expressed human ETA receptors in SK-N-MC cells; host or cells: SK-N-MC cells
T1 sequence (P25101 21-427): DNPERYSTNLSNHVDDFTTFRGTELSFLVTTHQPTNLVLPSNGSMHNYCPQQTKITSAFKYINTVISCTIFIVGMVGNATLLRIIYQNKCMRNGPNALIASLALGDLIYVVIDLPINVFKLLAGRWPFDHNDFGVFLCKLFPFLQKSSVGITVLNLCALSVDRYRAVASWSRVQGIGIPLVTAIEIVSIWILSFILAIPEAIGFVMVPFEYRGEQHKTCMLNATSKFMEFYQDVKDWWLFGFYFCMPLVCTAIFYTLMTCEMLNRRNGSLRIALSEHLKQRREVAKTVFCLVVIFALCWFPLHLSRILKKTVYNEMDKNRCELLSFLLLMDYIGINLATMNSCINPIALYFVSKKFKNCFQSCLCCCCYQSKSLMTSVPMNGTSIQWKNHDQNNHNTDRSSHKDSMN
Experimental: Experimental Embodiment 1: In Vitro Test of Antagonistic Effect Against Human ETA Receptor
Antagonistic activity of the compounds against endogenously expressed human ETA receptors in SK-N-MC cells was evaluated by measuring the effect of compounds on the changes in cytoplasmic Ca^2+ ion signal induced by human ETA receptor agonists using fluorescence detection methods. The functional activity of the ETA receptor antagonistic effect was tested in Eurofins-Cerep SA according to current standard procedures.
1. Cells were suspended in Dulbecco's modified Eagle medium solution (DMEM, Invitrogen) supplemented with 1% FCSd, then distributed in 384-well plate (100 μL/well) at a density of 5×10^4 cells/well;
2. Probenecid in Hank's balanced salt solution (HBSS, Invitrogen) supplemented with 20 mM 4-(2-hydroxyethyl)piperazine-1-ethanesulfonic acid (Hepes, Invitrogen) (pH 7.4) was mixed with fluorescent probe (Fluo4 NW, Invitrogen), the mixture was added to each wells, then balanced with cells at 37° C. for 60 minutes, and then balanced with cells at 22° C. for 15 minutes;
(§1) 3. The test plate was placed in a microplate reader (CellLux, PerkinElmer), a DMSO solution or HBSS buffer with an appropriate concentration of the test compound and the positive control was added, and 1 nM endothelin-1 or HBSS buffer (base control) was added after 5 minutes, and then the change in fluorescence intensity proportional to the concentration of Ca^2+ ions of free […] was measured;
5. Standard positive control was BQ-123, several concentrations were tested in each experiments. The data was analyzed using Prism to generate a concentration-response curve, and IC50 values of the compounds were calculated.

human ETB receptor = target: T2, human ETB receptor (Homo sapiens, UniProt P24530); test: In vitro antagonistic effect against human ETB receptor, Ca2+ signal in transfected CHO cells; format: cell-based; conditions: response to 0.3 nM endothelin-1
T2 construct: host or cells: CHO cells
T2 sequence (P24530 27-442): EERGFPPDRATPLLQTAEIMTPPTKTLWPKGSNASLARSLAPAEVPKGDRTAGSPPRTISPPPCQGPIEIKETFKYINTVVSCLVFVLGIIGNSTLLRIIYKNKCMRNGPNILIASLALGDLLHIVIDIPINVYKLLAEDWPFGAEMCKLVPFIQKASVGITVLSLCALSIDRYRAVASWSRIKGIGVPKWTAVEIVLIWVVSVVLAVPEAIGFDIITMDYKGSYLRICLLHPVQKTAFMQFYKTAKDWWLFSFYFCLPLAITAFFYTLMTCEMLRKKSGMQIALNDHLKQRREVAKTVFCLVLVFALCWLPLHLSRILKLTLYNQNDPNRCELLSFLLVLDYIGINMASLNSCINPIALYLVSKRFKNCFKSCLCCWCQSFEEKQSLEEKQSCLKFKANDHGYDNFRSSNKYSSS
Experimental: Antagonist activity of the compound against human ETB receptors expressed in transfected CHO cells was evaluated by measuring the effect of the compound on the changes in the cytoplasmic Ca^2+ ion signal induced by human ETB receptor agonists. The functional activity of the ETB receptor antagonistic effect was tested in Eurofins-Cerep SA according to current standard procedures.
1. Cells were suspended in DMEM buffer (Invitrogen) and then distributed in 384-well plate (100 μL/well) at a density of 3×10^4 cells/well;
2. Probenecid in HBSS buffer (Invitrogen) supplemented with 20 mM Hepes (Invitrogen) (pH 7.4) was mixed with fluorescent probe (Fluo4 NW, Invitrogen), the mixture was added to each wells, then balanced with cells at 37° C. for 60 minutes, and then balanced with cells at 22° C. for 15 minutes;
as §1, with “and 0.3” for “and 1”
4. Results were shown as the percent inhibition of control response to 0.3 nM endothelin-1;
5. Standard positive control was BQ-788, several concentrations were tested in each experiments. The data was analyzed using Prism to generate a concentration-response curve, and IC50 values of the compounds were calculated.

[1] = Pharmacokinetics in beagle dogs; format: in vivo
Description: Experimental embodiment 7: Evaluation on the pharmacokinetic of compounds in beagle dogs
Male beagle dogs were selected as the tested animals in this study, and the drug concentration in plasma of beagle dogs at different time points via intravenous injection or oral perfusion gastric administration of the test compounds was quantitatively measured using LC/MS/MS method to evaluate the pharmacokinetic characteristics of the test compounds in beagle dogs.
Beagle dog (male, 6-15 kg, more than 6 months old, Beijing Marshall Biotechnology Co., Ltd.).
A clear solution of the test compound was injected intravenously into beagle dogs (overnight fasting), or administrated orally to beagle dogs by gavage (overnight fasting). For intravenous administration, 500 μL of blood was collected from peripheral vessels at 0 hour (pre-dosing) and at 0.0833, 0.25, 0.5, 1, 2, 4, 6, 8 and 24 hours after dosing, which was then placed in an anticoagulation tube supplemented with EDTA-K2 (Suzuki Healthcare Medical Co., Ltd.). For oral gastric administration, 500 μL of blood was collected from peripheral vessels at 0 hour (pre-dosing) and at 0.25, 0.5, 1, 2, 4, 6, 8 and 24 hours after dosing, which was then placed in an anticoagulation tube supplemented with EDTA-K2. The mixture in the anticoagulation tube was vortexed to mix thoroughly, and then centrifuged at 13000 rpm for 10 minutes to collect the plasma. Plasma drug concentration was measured by LC/MS/MS method, and related pharmacokinetic parameters were calculated using WinNonlin™ Version 6.3 (Pharsight, Paul View, Calif.) pharmacokinetics software in non-room model linear logarithmic trapezoids method.

[2] = male, dog, plasma, intravenous injection 1 mg/kg

IC50 (human ETA receptor) | ETA/ETB selectivity (human ETA receptor) | IC50 (human ETB receptor) | The area under the plasma concentration time curve ([1]; intravenous injection 1 mg/kg) | bioavailability ([1]; male, beagle, dog, plasma, po, 3 mg/kg, oral administration 3 mg/kg, read-out: Bioavailability F) | half-life [1, 2] | Peak concentration ([1]; oral administration 3 mg/kg) | Peak time ([1]; oral administration 3 mg/kg) | The area under the plasma concentration time curve ([1]; oral administration 3 mg/kg) | Bioavailability F ([1]; oral administration 3 mg/kg, 3 mg/kg) | Plasma clearance rate ([1]; intravenous injection 1 mg/kg, 1 mg/kg) | clearance ([1]; male, beagle, dog, plasma, iv, 1 mg/kg, intravenous injection 1 mg/kg, read-out: Plasma clearance rate) | Compound
0.0028 µM | 30300 | 85 µM | 46.94 µM·h | > 50% | 2.31 h | 16.20 µM | 0.38 h | 73.77 µM·h | 52.4% |  |  | NS(=O)(=O)Nc1ncnc(OCCOc2ncc(Br)cn2)c1-c1ccc2c(c1)OCO2 [WX001]
0.0014 µM | 47100 | 66 µM | 7.56 µM·h |  | 0.86 h | 12.75 µM | 0.38 h | 33.40 µM·h |  | 0.287 L/h/kg | < 0.3 L/h/kg | COCCNS(=O)(=O)Nc1ncnc(OCCOc2ncc(Br)cn2)c1-c1ccc2c(c1)OCO2 [WX013]
